Earlier results, collected in patent publication US20220354960A1, “IMMUNE CHECKPOINT BLOCKING BISPECIFIC MOLECULES” (THE SCRIPPS RESEARCH INSTITUTE, priority 2019, published 2022).

Tested on: melanoma
Conditions: for three-year survival of patients with melanoma: human, in vivo; for overall survival (>5 years): patients with melanoma

Substance | three-year survival of patients with melanoma [%] | overall survival (>5 years) [%]
Pembrolizumab: anti-programmed cell death-1 (PD-1) antibody | ~70 | ~30
Ipilimumab: anti-cytotoxic T-lymphocyte antigen-4 (CTLA-4) antibody | ~70 | ~30
